How the values were obtained:
[1] = Half life in BALB/c mouse plasma at 5 mg/kg, iv by LC-MS/MS analysis
PANC-1 = assay: Antitumor activity against human PANC-1 cells xenografted in BALB/c mouse assessed as reduction in tumor volume at 2 mg/kg, iv administered once every 2 days and measured on day 74 relative to control; format: functional; design: scale not given: the % may be the effect or the level left; conditions: time 74 day

| half-life [1] [h] | Structure (SMILES) | Activity (PANC-1) [%] |
| --- | --- | --- |
| 29.4 | COc1cccc2c1C(=O)c1c(O)c3c(c(O)c1C2=O)C[C@@](O)(C(=O)CO)C[C@@H]3O[C@H]1C[C@H](N)[C@H](O)[C@H](C)O1 [DOXORUBICIN] | – |
| – | COc1cccc2c1C(=O)c1c(O)c3c(c(O)c1C2=O)C[C@@](O)(C(C)=O)C[C@@H]3O[C@H]1C[C@H](N)[C@H](O)[C@H](C)O1 [DAUNORUBICIN] | 32.2 |
